US20200017496A1 (priority 2017, published 2020)

Assays:
Experiment in all cases: MIC of compounds alone and combined with antibacterials, broth microdilution (CLSI)
Type in all cases: cell-based
[1] = system: Citrobacter freundii (CFR) isolates
In short: (§1)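 Inoculum 5·10^5 CFU/mL (final), log phase, ca-MHB; 16-20 h, 35° C, ambient air. MIC = lowest conc. with no visible growth; ATB MIC read at each compound level.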

[2] = system: Enterobacter cloacae (ECL) isolates
In short: as §1

[3] = system: Klebsiella pneumoniae (KPN) isolates; conditions: AF1 @ 4 μg/mL
In short: as §1

[4] = system: Serratia marcescens (SMA) isolates
In short: as §1

Measured: MIC ATB in combination

COCC1=C(C(=O)O)N2C(=O)[C@@H](NC(=O)/C(=N\OC)c3csc(N)n3)[C@H]2SC1 [POD, Cefpodoxime]
16 µg/mL: [1]; CFR UFR11, AF1 @ 4 μg/mL | [2]; ECL NEM146383, AF1 @ 4 μg/mL | [2]; ECL P99, AF1 @ 4 μg/mL
4 µg/mL: [2]; ECL UFR85, AF1 @ 4 μg/mL | [3]; KPN 140513 | [3]; KPN 260252 | [3]; KPN UFR27 | [3]; KPN UFR67 | [3]; KPN UFR77 | [3]; KPN UFR79 | [3]; KPN UFR81 | [3]; KPN UFR220 | [3]; KPN UFR227O | [4]; SMA UFR135, AF1 @ 4 μg/mL
2 µg/mL: [2]; strain ECL UFR196, antibacterial combined with AF1 @ 4 μg/mL | [3]; KPN UFR66 | [4]; SMA UFR134, AF1 @ 4 μg/mL | [4]; SMA UFR139, AF1 @ 4 μg/mL | [4]; SMA UFR141, AF1 @ 4 μg/mL | [4]; SMA UFR239, AF1 @ 4 μg/mL | [4]; strain SMA UFR238, antibacterial combined with AF1 @ 4 μg/mL
>128 µg/mL: [1]; CFR UFR83, AF1 @ 4 μg/mL | [2]; ECL 2185D, AF1 @ 4 μg/mL | [3]; KPN UFR76
64 µg/mL: [2]; ECL 190310, AF1 @ 4 μg/mL
<=0.25 μg/mL: [1]; CFR UFR10, AF1 @ 4 μg/mL | [1]; CFR UFR249, AF1 @ 4 μg/mL | [1]; strain CFR UFR253, antibacterial combined with AF1 @ 4 μg/mL | [1]; strain CFR UFR254, antibacterial combined with AF1 @ 4 μg/mL | [2]; ECL 190408, AF1 @ 4 μg/mL | [3]; KPN 6299 | [3]; KPN 110376 | [3]; KPN 131119 | [3]; KPN 160143 | [3]; KPN 190425 | [3]; KPN 190551 | [3]; KPN 200047 | [3]; KPN 200327 | [3]; KPN 260251 | [3]; KPN 260376 | [3]; KPN ARA | [3]; KPN LIB | [3]; KPN UFR22_O | [3]; KPN UFR23 | [3]; KPN UFR25 | [3]; KPN UFR28 | [3]; KPN UFR216 | [3]; KPN UFR217 | [3]; KPN UFR219
32 µg/mL: [2]; ECL 200138, AF1 @ 4 μg/mL | [2]; ECL 260323, AF1 @ 4 μg/mL | [2]; ECL UFR84, AF1 @ 4 μg/mL
8 µg/mL: [2]; ECL 260253, AF1 @ 4 μg/mL | [2]; ECL UFR13, AF1 @ 4 μg/mL | [2]; ECL UFR14, AF1 @ 4 μg/mL | [2]; ECL UFR70, AF1 @ 4 μg/mL | [2]; strain ECL UFR197, antibacterial combined with AF1 @ 4 μg/mL | [2]; strain ECL UFR198, antibacterial combined with AF1 @ 4 μg/mL | [3]; KPN UFR222 | [4]; SMA UFR136, AF1 @ 4 μg/mL
128 µg/mL: [2]; ECL 260033, AF1 @ 4 μg/mL | [3]; KPN UFR78
1 µg/mL: [1]; CFR UFR146, AF1 @ 4 μg/mL | [1]; CFR UFR248, AF1 @ 4 μg/mL | [2]; ECL 200322, AF1 @ 4 μg/mL | [2]; ECL 260508, AF1 @ 4 μg/mL | [2]; ECL UFR12, AF1 @ 4 μg/mL | [2]; ECL UFR60, AF1 @ 4 μg/mL | [2]; ECL UFR194, AF1 @ 4 μg/mL | [2]; ECL UFR200, AF1 @ 4 μg/mL | [2]; strain ECL UFR195, antibacterial combined with AF1 @ 4 μg/mL | [3]; KPN UFR24 | [3]; KPN UFR68 | [3]; KPN UFR221 | [4]; SMA UFR142, AF1 @ 4 μg/mL | [4]; SMA UFR143, AF1 @ 4 μg/mL
0.5 µg/mL: [1]; CFR UFR250, AF1 @ 4 μg/mL | [3]; KPN 190128 | [3]; KPN 190270 | [3]; KPN 270077 | [3]; KPN 700603 | [3]; KPN BAA-1898 | [3]; KPN UFR65 | [3]; KPN UFR80 | [3]; KPN UFR215 | [4]; SMA UFR30, AF1 @ 4 μg/mL | [4]; SMA UFR137, AF1 @ 4 μg/mL | [4]; SMA UFR138, AF1 @ 4 μg/mL
